Results reported in US20230416245A1, “ADENOSINE ANALOGS FOR THE TREATMENT OF DISEASE” (BIOINTERVENE, INC., priority 2020, published 2023).

Target: human adenosine A3 receptor (Homo sapiens (Human), UniProt P0DMS8)
Assay: Intracellular cAMP levels (inhibition of forskolin-stimulated cAMP production)
Type: cell-based
Details: for EC50: CHO cells expressing human adenosine A3 receptors, forskolin 10 μM; for CAMP Efficacy (%): maximal response as percentage of the response produced by 100 nM IB-MECA
In short: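 CHO-K1 cells stably expressing human A3 receptor were exposed to compound (0.1 nM–1 μM) for 5 min at 37 °C, then 10 μM forskolin for 10 min. cAMP measured by competitive enzyme immunoassay (OD 450 nm); EC50 from Hill fit of inhibition, maximum relative to 100 nM IB-MECA.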

Chain of human adenosine A3 receptor (P0DMS8 whole entry): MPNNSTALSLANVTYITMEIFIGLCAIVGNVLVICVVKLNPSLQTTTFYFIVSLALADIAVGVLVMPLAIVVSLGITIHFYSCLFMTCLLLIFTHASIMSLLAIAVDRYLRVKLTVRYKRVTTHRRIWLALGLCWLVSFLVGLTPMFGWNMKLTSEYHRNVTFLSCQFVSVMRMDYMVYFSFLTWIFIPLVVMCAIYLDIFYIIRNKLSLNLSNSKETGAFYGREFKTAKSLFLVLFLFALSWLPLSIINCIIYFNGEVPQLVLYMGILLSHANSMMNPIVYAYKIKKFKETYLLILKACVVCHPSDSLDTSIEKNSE

EC50	CAMP Efficacy (%)	Compound
1.33 nM	80.97%	O[C@@H]1[C@H](O)[C@@H]2C[C@@H]2[C@H]1n1cnc2c(NCC(F)F)nc(Cl)nc21 [Compound 35, (1R,2R,3S,4R,5S)-4-(2-chloro-6-((2,2-difluoroethyl)amino)-9H-purin-9-yl)bicyclo[3.1.0]hexane-2,3-diol]
8.6 nM	77.6%	O[C@@H]1[C@H](O)[C@@H]2C[C@@H]2[C@H]1n1cnc2c(NCC(F)F)cc(Cl)nc21 [Compound 40, (1R,2R,3S,4R,5S)-4-(5-chloro-7-((2,2-difluoroethyl)amino)-3H-imidazo[4,5-b]pyridin-3-yl)bicyclo[3.1.0]hexane-2,3-diol]
> 10000 nM	1%	CCNc1cc(C#CC2CC2)nc2c1ncn2[C@H]1[C@H](O)[C@H](O)[C@@H]2C[C@@H]21 [Compound 46, (1R,2R,3S,4R,5S)-4-(5-(cyclopropylethynyl)-7-(ethylamino)-3H-imidazo[4,5-b]pyridin-3-yl)bicyclo[3.1.0]hexane-2,3-diol]
> 10000 nM	1%	Cc1c(Cl)nc2c(ncn2[C@H]2[C@H](O)[C@H](O)[C@@H]3C[C@@H]32)c1NCC(F)F [Compound 60, (1R,2R,3S,4R,5S)-4-(5-chloro-7-((2,2-difluoroethyl)amino)-6-methyl-3H-imidazo[4,5-b]pyridin-3-yl)bicyclo[3.1.0]hexane-2,3-diol]
